The subject of experiment [1] is mast cells of the RBL-2H3 line. In words: Antigen-induced degranulation of sensitized mast cells (beta-hexosaminidase release). Format: cell-based. As to conditions: Rattus norvegicus; for Emax: RBL-2H3, DNP-BSA, read-out: EMAX blocking of anaphylactic mast cell degranulation. The protocol:
For this study, mast cells of the RBL-2H3 line were used, as previously reported (Beaven et al., 1987). […] The cells were then dissociated from the plate using trypsin, centrifuged at 1000 rpm for 5 minutes and distributed in 48-well plates at a density of 125,000 cells per well. The cells were sensitized with monoclonal DNP-specific […] (1 μg/mL) diluted in the same medium used for the cultivation and maintained in the oven for 20 hours. After this period, the cells were washed with Tyrode-gelatin and subjected to treatment with increasing concentrations of […]-209 or mexiletine for 60 minutes. Then, incubation was performed with DNP-BSA (10 ng/ml) for a further period of 60 minutes. After this period, 10 μL of supernatant were collected from each well and added to a 96-well plate. The cells were lysed with 200 μL of 0.1% Triton X-100 and 10 μL of the lysate of each plate were added to the 96-well plate. Then, 40 μL of substrate for the β-hexosaminidase enzyme were added to the samples. After 40 minutes of reaction, reaction stopping solution (0.2 M glycine) was added, generating a colorimetric response, which was measured by spectrophotometer (λ=405 nm).

Experiment [2] has as its system sodium current in GH3 cells. In words: Inhibition of sodium current in GH3 cells, patch clamp. Format: cell-based, rat.
Another experiment concerns rat tracheal rings. The experiment can be described thus: Inhibition of carbachol-induced contraction of rat tracheal rings (pretreatment). As to conditions: for IC50 / Emax: carbachol 10 μM, pretreated 10 minutes; for Emax: mean ± SEM, read-out: EMAX maximum effect of inhibition of carbachol-induced contraction. An excerpt:
In this study, Wistar rats of both sexes were used, weighing between 200 and 250 g, coming from the Laboratory Animal Breeding Center of Fundacdo Oswaldo Cruz. As previously described (Coelho et al., 2008), the animals were sacrificed by exposure to air atmosphere enriched with CO2, Then, the anterior cervical region was opened so that the trachea could be located and removed. It was then transferred to a Petri dish containing Krebs solution with the following composition (mM): NaCl (118), KCl (4.8), CaCl2 (2.5), MgSO4 (1.2), KH2PO4 (1.2), NaHCO3 (24), and glucose (11). The total segment was divided into fragments of about 3 to 4 rings, which were kept in another Petri dish containing Krebs solution. Each fragment was mounted vertically on a 10 ml cuvette with Krebs solution maintained at 37° C. and aerated with carbogen mixture (95% O2 and 5% CO2). The lower rod is fixed to the cuvette base and the top portion was attached to the isometric transducer for measuring the voltage variation of the fragment. The transducer was connected to a device which transforms the voltage variation in digital record. The fragments were subjected to a basal voltage of 1 g and were calibrated, so that the subsequent contractions could be expressed as a percentage of this 1 g voltage. The solutions were introduced inside the cuvettes with the aid of an automatic pipette. The end of the tip was always placed at the same height and position, without touching the muscle. The tracheal rings were initially contracted with 2.5 μM of carbachol. When the contractions reached the plateau, each segment was washed until the total relaxation of the smooth muscle. […] All results were expressed as percentage of the contraction produced by 2.5 μM of carbachol (Coelho et al., 2008).

For experiment [3], the system named is rat tracheas pre-contracted with carbachol. The experiment can be described thus: Relaxation of rat trachea pre-contracted with carbachol. The protocol: To assess the potential relaxing effect of the respiratory smooth muscle, rat tracheas were obtained and maintained in an isolated organ bath, as previously described (Coelho et al., 2008). The tracheal segments were then pre-contracted with carbachol at the concentration of 2.5 μM and subjected to increasing concentrations of the tested compounds. All results were expressed as percentage of the contraction produced by carbachol (Coelho et al., 2008).

Another experiment deals with tracheal rings. In words: Anaphylactic (ovalbumin-induced) contraction of tracheal rings from sensitized rats. More on the design: species or system Wistar rats. The protocol:
In this study, Wistar rats of both sexes were used, weighing between 200 and 250 g, coming from the Laboratory Animal Breeding Center of Fundacdo Oswaldo Cruz. As described previously (da Costa et al., 2007), the animals were sensitized by injection into the dorsal subcutaneous tissue with mixture containing 50 μg of ovalbumin and 5 mg of aluminum hydroxide on days 0 and 7. On the 14th day after the first sensitization, the animals were sacrificed for the removal of the trachea. After a stabilization period of 30 minutes, the tracheal rings were contracted initially with carbachol (2.5 μM) for testing the feasibility and reproducibility of the responses of the preparation.
The tracheal rings were exposed to increasing concentrations of JME-173 (3-30 μM), or carrier (0.9% NaCl) for 30 minutes before the triggering of the contractile response triggered by ovalbumin (100 μg/ml). Salmeterol (30 μM) was used as reference treatment. The responses were expressed as mean±Standard Error of the Mean of at least 5 tracheal segments. All results were expressed as percentage of the contraction produced by 2.5 μM of carbachol.

In experiment [4] the test system is A/J mice. The experiment can be described thus: Ovalbumin asthma model: hyperreactivity, mucus production, peribronchial fibrosis (nebulization). Format: in vivo. The text has this: Male A/J mice (18-20 g), coming from the Laboratory Animal Breeding Center of Oswaldo Cruz Foundation, were used in the experiments. The sensitization procedures, antigen challenge and treatment used in this study followed the experimental protocol shown in FIG. 6. Histological techniques were used for the quantification of mucus and peribronchial fibrosis, following previously reported and validated experimental protocols (Serra et al., 2012).

In experiment [5] the test system is A/J mice. The experiment can be described thus: Ovalbumin asthma model: airway hyperreactivity, leukocyte infiltration, cytokines (nebulization). Format: in vivo. The protocol: Male A/J mice (18-20 g), coming from the Laboratory Animal Breeding Center of Oswaldo Cruz Foundation, were used in the experiments. The animals were previously sensitized with a mixture of ovalbumin (OVA) (50 μg) (Grade V; Sigma, St. Louis, Mo., USA) and aluminum hydroxide (5 mg) administered subcutaneously on day 0 with boost on day 14 (equal suspension administered intraperitoneally). Nasal instillations of OVA (25 μg/25 μl in sterile 0.9% NaCl) were administered on days 14, 21, 28 and 35, with the hyperresponsiveness analysis performed 24 hours after the last challenge. […] That is, the treatments took place after the installation of asthma framework, reflecting a therapeutic action of the respective compounds analyzed.
The effect of the treatments on bronchial hyperreactivity was investigated by measuring the resistance changes and pulmonary elastance, using invasive barometric plethysmography whole-body system (Buxco, USA), as previously described (Olsen et al., 2012).

Where [6] appears, read: trachea pre-contracted with carbachol 2.5 μM, mean±SEM.

The term IC50 denotes the midpoint of a concentration-inhibition curve. One may read the Emax as the maximal effect, on the per cent scale that the assay sets. By EC50 is commonly meant the concentration that produces a half-maximal response. The term inhibition denotes the relative decrease from the control value, in per cent.

Like-named read-outs stand apart in the source and are kept apart here.

Regarding `Cc1cccc(C)c1OCC(C)N` (centres unmarked) [Mexiletine, 2-(2-aminopropoxy)-1,3-dimethylbenzene, reference compound], the IC50 is 382 µM in experiment [1] (RBL-2H3, 1 h, RBL-2H3, DNP-BSA 10 ng/ml, 60 minutes treatment, read-out: IC50 blocking of anaphylactic mast cell degranulation); roughly 278 µM in experiment [2] (GH3 cells, patch clamp, read-out: IC50 for blocking the sodium current); 466 µM with rat tracheal rings (Rattus norvegicus). The Emax came to 100% in experiment [1] and 87.7 ± 4.9% in the experiment on rat tracheal rings (Rattus norvegicus). For the same compound, in the experiment with rat tracheal rings (compound 1000 μM), the “blocking of the muscarinic contraction” value is “about 88%”. In addition, the maximum relaxation effect in experiment [3] (setting [6]) came to 40%.

As to `Cc1cc(OCC(C)N)cc(C)c1Br.Cl` (centres unmarked) [JME-173], in experiment [1], the maximal effect (Emax) turned out to be 97%. In addition, the EC50 in the experiment with tracheal rings (Rattus norvegicus, ovalbumin 100 μg/ml, 30 minutes pretreatment, read-out: EC50 inhibition of anaphylactic contraction response) turned out to be 8.3 µM. The “blocking of anaphylactic contraction” value in the experiment with tracheal rings (compound 30 μM) is “completely inhibited”. Besides, in the experiment on rat tracheal rings (Rattus norvegicus), the IC50 came to 44.4 µM and the Emax amounted to 97.9 ± 4.7%. Moreover, the inhibition at 100 µM in the experiment with rat tracheal rings (Rattus norvegicus, compound 100 μM, pre-treatment 10 minutes, read-out: inhibition of the muscarinic contraction) is roughly 98%. In addition, the IC50 with rat tracheal rings came out at 44.3 µM. Besides, the airway hyperreactivity result in the experiment with A/J mice [4] (nebulization 0.5%, 1% or 2% for 30 minutes) was “able to block”. In addition, in the experiment with A/J mice [4] (nebulization 0.5%, PAS staining, quantitative analysis), the “inhibition of mucus production in airways” value was “about 70%”. The peribronchial fibrotic response entry with A/J mice [4] (nebulization, Gömöri trichrome, morphometry) is on record as “clearly abolished”. In addition, the midpoint of the response in experiment [3] (Rattus norvegicus, trachea pre-contracted with carbachol 2.5 μM, mean±SEM), the EC50, lay at 3100 µM. The “times more potent as relaxation inducers than mexiletine” value in experiment [3] (pre-contracted trachea) came out at 47 times. In experiment [3] (setting [6]), this compound had a maximum relaxation effect of 118%. Further, in the experiment on A/J mice [5] (nebulization 2%), the “IL-5 generation in lung tissue” value is “blocking”, the “IL-13 generation in lung tissue” value is reported as “blocking”, the “eotaxin-2 generation in lung tissue” value is on record as “blocking” and the “increased levels of anti-inflammatory cytokine IL-10” value was “without change”. Besides, the “airway hyperreactivity (lung resistance and elastance after methacholine)” value with A/J mice [5] (nebulization 2% for 30 minutes, OVA sensitized and challenged) was “abolished”.

Consider `NC1=N[C@H](O)[C@H]2[C@H]3O[C@]4(O)O[C@@H]([C@@H](O)[C@@]2(N1)[C@@H]4O)[C@]3(O)CO` [tetrodotoxin], for which, in experiment [2] (read-out: IC50 inhibition of sodium current), the IC50 came out at 0.304 µM.

For the origin of these results see patent US20160214926A1, “DIPHENYLOXYALKYLAMINE DERIVATIVES AND ARYLOXYALKYLAMINE DERIVATIVES, PHARMACEUTICAL COMPOSITION, USE OF SAID PHARMACEUTICAL COMPOSITION FOR TREATING, PREVENTING OR INHIBITING CHRONIC PULMONARY INFLAMMATORY DISEASES AND METHOD FOR TREATING OR PREVENTING SUCH DISEASES” (FUNDACAO OSWALDO CRUZ, priority 2013, published 2016).
